Results reported in ChEMBL document CHEMBL3988442, “University of Dundee, Small-Polar-MMV Screening Library” (2021).
Values joined by “and” are separate entries in the source; they are usually repeats but may differ in a detail not shown here. Equal entries are not always repeated.

What was measured:
[1] = biological target: AMP-activated protein kinase, AMPK; test: AMP-dependent Kinase enzyme assay. An in vitro enzyme assay that detects ADP turnover that is directly proportional to AMPK activity. This uses naive AMPK that is activated during the assay with MK-8722; type: functional, Homo sapiens
Plasmodium falciparum = test: Calibr Malaria Delayed Death Assay SOP; type: functional, organism-based; conditions: for IC50: Plasmodium falciparum
Schistosoma mansoni = test: High throughput screening of compounds against Schistosoma mansoni motility; type: functional; set-up: dose or concentration left out as unconfirmed
Histidine--tRNA ligase [2] = biological target: T1, Histidine--tRNA ligase (Leishmania infantum, UniProt A4I591); test: Leishmania infantum Histidine tRNA synthetase (LdHisRS); type: functional
T1 sequence (A4I591 whole entry): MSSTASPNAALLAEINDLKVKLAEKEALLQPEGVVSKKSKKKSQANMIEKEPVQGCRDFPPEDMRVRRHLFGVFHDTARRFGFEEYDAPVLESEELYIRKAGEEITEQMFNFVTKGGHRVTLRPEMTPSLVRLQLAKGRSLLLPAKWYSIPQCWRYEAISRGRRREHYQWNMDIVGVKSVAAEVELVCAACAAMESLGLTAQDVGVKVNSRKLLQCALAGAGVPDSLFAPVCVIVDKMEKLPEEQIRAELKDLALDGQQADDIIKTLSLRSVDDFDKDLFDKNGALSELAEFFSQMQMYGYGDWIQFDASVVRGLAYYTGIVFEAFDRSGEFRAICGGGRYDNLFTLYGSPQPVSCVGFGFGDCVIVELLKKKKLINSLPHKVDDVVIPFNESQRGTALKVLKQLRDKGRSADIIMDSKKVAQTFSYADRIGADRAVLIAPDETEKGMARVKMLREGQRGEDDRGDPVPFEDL

[3] = biological target: T2, Coenzyme A biosynthesis bifunctional protein CoaBC (Mycobacterium tuberculosis (strain ATCC 25618 / H37Rv), UniProt P9WNZ1); test: Biomol Green assay for MtCoaBC inhibitor, OD650 read; type: functional
T2 sequence (P9WNZ1 whole entry): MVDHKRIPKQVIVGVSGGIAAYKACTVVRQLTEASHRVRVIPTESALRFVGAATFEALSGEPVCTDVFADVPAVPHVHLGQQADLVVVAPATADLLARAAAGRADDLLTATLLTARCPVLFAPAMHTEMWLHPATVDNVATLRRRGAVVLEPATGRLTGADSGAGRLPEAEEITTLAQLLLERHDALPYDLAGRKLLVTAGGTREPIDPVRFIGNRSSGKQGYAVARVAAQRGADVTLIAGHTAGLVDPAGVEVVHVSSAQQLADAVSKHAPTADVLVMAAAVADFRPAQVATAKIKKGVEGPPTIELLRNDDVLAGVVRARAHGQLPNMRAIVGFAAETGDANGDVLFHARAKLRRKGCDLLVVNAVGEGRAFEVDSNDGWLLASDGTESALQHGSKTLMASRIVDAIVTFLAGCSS

Trypanosoma brucei = test: Trypanosoma brucei 72 hour study; type: functional, organism-based; conditions: for IC50: Trypanosoma brucei, 72 h
[4] = system: Mycobacterium tuberculosis; test: Cornell M. t heat shock assay; type: functional, organism-based; conditions: for IC50: Mycobacterium tuberculosis
ClpP1P2 = ClpP1P2 (Mycobacterium tuberculosis (strain ATCC 25618 / H37Rv), UniProt P9WPC3+P9WPC5); test: in vitro assay to detect presence of AMC directly proportional to the activity of ClpP1P2. GHDDI collaboration.; type: functional
Leishmania donovani = test: Leishmania intramacrophage assay; type: functional, organism-based; conditions: for IC50: Leishmania donovani
[5] = In vitro enzyme assay to detect hydrolysis of chlorophenol red-beta-D-[…] directly proportional to the number of Toxoplasma stably expressing beta-galactosidase; type: functional, organism-based, Toxoplasma gondii
Histidine--tRNA ligase [6] = biological target: T3, Histidine--tRNA ligase (Trypanosoma cruzi (strain CL Brener), UniProt Q4DA54); test: Trypanosoma cruzi histidyl tRNA synthetase (Tc-HisRS); type: functional
T3 sequence (Q4DA54 whole entry): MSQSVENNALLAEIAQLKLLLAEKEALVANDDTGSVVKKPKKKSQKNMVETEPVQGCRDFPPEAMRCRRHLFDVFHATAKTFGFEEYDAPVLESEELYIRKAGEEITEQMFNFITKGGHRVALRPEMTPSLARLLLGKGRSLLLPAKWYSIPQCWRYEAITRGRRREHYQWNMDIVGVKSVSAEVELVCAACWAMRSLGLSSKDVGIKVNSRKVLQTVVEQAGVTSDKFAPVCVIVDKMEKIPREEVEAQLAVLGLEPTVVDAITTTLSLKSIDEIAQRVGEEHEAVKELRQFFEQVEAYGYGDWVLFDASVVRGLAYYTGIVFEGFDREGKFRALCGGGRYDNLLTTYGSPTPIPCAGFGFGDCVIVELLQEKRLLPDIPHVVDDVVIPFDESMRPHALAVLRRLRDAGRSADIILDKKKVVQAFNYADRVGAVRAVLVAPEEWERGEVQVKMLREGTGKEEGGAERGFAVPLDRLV

[7] = microbe, parasite or virus in culture; conditions: Mycobacterium tuberculosis, 96 h, read-out: pIC50 (converted)
[8] = microbe, parasite or virus in culture; conditions: Mycobacterium tuberculosis, 72 h, read-out: pIC50 (converted)

Compound	pIC50 [1]	other results
O=C(NCC1CC1)C1CN(C(=O)c2cccc(Cl)c2)CC12CCOCC2 (stereo not given)	< 4	
Cc1ccsc1C(=O)N1CC(C(=O)N2CCOCC2)C2(CCOCC2)C1 (stereo not given)	< 4	
Cc1cc(-c2cnc(NC3CC3)nc2-c2ccco2)on1	< 4 and 4.22	
Cl.Cl.c1cncc(OC[C@@H]2CCC[C@@]23CNCCO3)c1	< 4	
CN(C)S(=O)(=O)NC1CCCc2c1cnn2-c1ccc(C(C)(C)C)cc1 (stereo not given)	< 4	
O=C1CC2(CCN(Cc3ccc(-c4ccccc4)s3)C2)C(=O)N1 (stereo not given)	< 4	
Cc1ccc2c(n1)N(C)CCN(C(=O)NC1CC1)C2.O=C(O)C(F)(F)F	< 4	
CCNC(=O)c1nnc2ccc(N3CCOCC3)cc2n1	< 4	
CC(C)c1n[nH]c(C(=O)Nc2ccccn2)c1Br	< 4	pIC50 (Plasmodium falciparum): 6.515; IC50 (Plasmodium falciparum): 0.24 µM
CCc1nnc2n1CCN(C(=O)c1ccc3nc(C)c(C)nc3c1)C2	< 4	Percent Effect (Schistosoma mansoni): -15.27%
CCS(=O)(=O)CC(=O)NC(c1ccc(F)cc1)C1CCCC1 (stereo not given)	< 4	
O=C(NCCNc1ccc(C(F)(F)F)cn1)c1cncc(Br)c1	4.385 and < 4	
CN(C)C(=O)Cc1nc(CN2CCCCC2Cn2cccn2)cs1 (stereo not given)	< 4	
COc1ccccc1OCc1cc(C(=O)N2CC(O)C2)n[nH]1	< 4	Percent Effect (Schistosoma mansoni): -18.55%
Cc1ccc(NC(=O)c2cc(S(=O)(=O)N3CCCCC3)c[nH]2)cc1F	< 4	
CC(C)COc1cncc(N2CCCN(c3ncccn3)CC2)n1	< 4	
CC(CN1CCN(C)CC1)NC(=O)c1cc(Cl)c2c(c1)OCO2 (stereo not given)	< 4	Percent Effect (Schistosoma mansoni): -52.41%
c1cc(-c2ccc3c(c2)CCC32CCNCC2)ccn1	< 4	IC50 (Histidine--tRNA ligase [2]): > 100 µM
CCn1cc(NC(=O)NCCN2CCCCCC2=O)cn1	< 4	
CC(C)OCCCNC(=O)c1ccc(-c2ccco2)[nH]c1=O	< 4	
Cc1cc(-c2cnc(NC3CCCC3)nc2-c2ccoc2)on1	< 4	
CN(C)c1nc2sc(C(=O)N3CCN(C(=O)OC(C)(C)C)CC3)cc2s1	< 4	
CN(C)S(=O)(=O)N1C[C@H](Oc2cccnc2)[C@H]2OCCC[C@H]21.O=C(O)C(F)(F)F	< 4	
Cc1cc(C)n(CCCn2cncc2-c2ccc3c(c2)CC(C)N3C)n1.Cl (stereo not given)		IC50 [3]: > 30.2 µM; pIC50 (Trypanosoma brucei): 4.689 and 4.712; IC50 (Trypanosoma brucei): 28.9 µM; IC50 (Histidine--tRNA ligase [2]): 23.7 µM and 22.2 µM; pIC50 (Plasmodium falciparum): 5.88; IC50 (Plasmodium falciparum): 1.59 µM; pIC50 [4]: 4.037; IC50 [4]: 76.7 µM; IC50 (ClpP1P2): > 100 µM

Compound	pIC50 [1]	other results
Cc1occc1-c1nc(NC2CCCC2)ncc1-c1ccccn1	< 4	
O=C1CN(C(=O)c2cc3ccc(Br)cc3[nH]2)CCN1	< 4	
C[C@H]1C[C@@H]2CCN(Cc3ccccn3)C[C@H]2O1	< 4	
CC(C)c1cc(C(=O)NCCc2nc(-c3cccnc3)n[nH]2)[nH]n1	4.471 and 4.569 and 4.528 and 4.581	
CCOCC(O)CN1CCN(C(=O)C2CC2)CC1 (stereo not given)	< 4	
Cc1cnn(CC2CN(Cc3nnc(C4CC4)o3)CCO2)c1 (stereo not given)	< 4	
COc1cc(CNC2CCCc3c2cnn3C)cc(OC)c1.Cl (stereo not given)	< 4	
Cc1cc(-c2cnc(NC3CC3)nc2-c2ccoc2)on1	< 4	
Cc1nn(C)c(N2CCOCC2)c1CNC(C)c1ccco1 (stereo not given)	< 4	Percent Effect (Schistosoma mansoni): -29.3%
NCC1Cc2cccc(-c3ccc(O)c(F)c3)c2O1 (stereo not given)	4.898 and 4.913	
CC(C)c1cc(NC(=O)c2ccc([S+]([O-])C(C)C)cc2)[nH]n1 (stereo not given)	5.533 and 5.17	
COc1cc(-c2cccc3c2OC(CN)C3)ccc1O (stereo not given)	4.656 and 4.577	
O=C(CN1CC(n2cccn2)C1)NCCc1c[nH]c2ccccc12	< 4	
CC1COCCN1Cc1nc(-c2cccs2)no1 (stereo not given)	< 4	
CN1CCC(c2n[nH]c(=O)n2-c2cccc(Cl)c2)CC1	< 4	
COc1ccc(CC2(CO)CCN(c3cc(C#N)ccn3)CC2)cc1	< 4	IC50 (ClpP1P2): > 100 µM
CC(C)NC(=O)N1CC[C@@H]2CN(Cc3ccccc3)S(=O)(=O)[C@@H]2CC1	< 4	
COc1cc(C(=O)N2CCCC(CNS(C)(=O)=O)C2)cc(OC)c1C (stereo not given)	< 4	
CC(C)c1cc(NC(=O)c2cccnc2)[nH]n1	4.473 and 4.751	
CC(C)(C)NC(=O)CNc1ncccn1	< 4	
Cn1cnc(S(=O)(=O)N2C[C@@H]3CC[C@H](C2)N(Cc2ccccn2)C3)c1	< 4	
Cl.NC1CCc2nc(-c3ccncc3)nc(Nc3cccc(F)c3)c2C1 (stereo not given)		pIC50 (Leishmania donovani): 5.181; IC50 (Leishmania donovani): 5.99 µM; pIC50 (Trypanosoma brucei): 5.636 and 5.623; IC50 (Trypanosoma brucei): 2.41 µM; IC50 ([5]; Toxoplasma gondii): 3.66 µM; IC50 (Histidine--tRNA ligase [2]): 46.3 µM and 51.2 µM; pIC50 [4]: < 4; IC50 [4]: 50.4 µM
Cc1cnn(CC2CN(Cc3nnc(-c4occc4C)o3)CCO2)c1 (stereo not given)	< 4	
CNc1nc(C(=O)N2CCCC(COc3ccc(F)cc3)C2)cs1 (stereo not given)	< 4	

Compound	pIC50 [1]	other results
Cn1ncc2c(NC3CCC3)nc(-c3ccncc3)nc21	< 4	
CCCS(=O)(=O)N1CCN(CCCO)CC1	< 4	
Cc1cc(-c2cnc(NC3CCCC3)nc2-c2ccco2)on1	4.667 and < 4.31	
CCn1nc(C)c2ccn(CC(=O)NC3CCCC3)c(=O)c21	< 4	
CCc1cc(NCCc2ccc(O)cc2)n2nccc2n1	4.438 and 4.726	Percent Effect (Schistosoma mansoni): -42.86%
c1cncc(-c2ccc3c(c2)C2(CCNCC2)CC3)c1	< 4	
CCOc1cc(C)nc(N2CCN(C(=O)CC)CC2)n1	< 4	
CNC(=O)c1cccc(NC(=O)Cn2nc(-c3cccs3)oc2=O)c1	< 4	
CCOc1cccc2c1OCC(C(=O)NS(=O)(=O)c1ccc(Cl)cc1)=C2	< 4	
c1cc(-c2ccc3c(c2)C2(CCNCC2)CC3)ccn1	< 4	
Cl.Cl.c1ccc(OC[C@@H]2CCC[C@@]23CNCCO3)nc1	< 4	
Cc1cccc(-c2nc(CN3CCc4cnc(C)nc4C3)no2)c1	< 4	
Cc1nc(N2CCN(C)CC2)ncc1C(=O)N1CCC(O)(CO)CC1	< 4	
Cc1ccsc1C(=O)N1CC(C(=O)NCC2CC2)C2(CCOCC2)C1 (stereo not given)	< 4	
CCc1cc(C)c(C(=O)N2CCCC2CC(=O)c2cnn(C)c2)o1 (stereo not given)	< 4	
CO[C@@H]1CC[C@H]2[C@H]1OCCN2C(=O)c1ccc(C)o1	< 4	
CCc1csc(C2CCCN(C(=O)c3cnn(CC)c3)C2)n1 (stereo not given)	< 4	
Cc1nc(C)n(CC2CCCN(c3ncnc4[nH]ccc34)C2)n1 (stereo not given)	4.827 [middle of 4 runs]	
Cl.Cl.c1cc(COC[C@@H]2CCC[C@@]23CNCCO3)ccn1	< 4	
CCn1ncc(-c2cc(C(F)(F)F)nc(N3CCC(N)CC3)n2)c1C		IC50 (Leishmania donovani): 11.9 µM; pIC50 (Trypanosoma brucei): 5.225 and 5.224; IC50 (Trypanosoma brucei): 5.74 µM; IC50 (Histidine--tRNA ligase [6]): > 100 µM; pIC50 [5]: 5.222 and 5.563; IC50 [7]: > 50.1 µM; IC50 [8]: > 50.1 µM
CC(C)c1cc(NC(=O)c2ccncc2)[nH]n1	4.474 and 4.692	
Cc1cc(-c2cnc(NC3CC3)nc2-c2ccoc2C)on1	< 4	
